Patent publication US20220024921A1, “1,3,4-OXADIAZOLONE COMPOUND AND PHARMACEUTICAL” (NIPPON SHINYAKU CO., LTD., priority 2018, published 2022)
Counter-ions that a name gives are not always drawn.

Columns and labels:
[1] = target: T1, PIM1 serine/threonine kinase (Homo sapiens, UniProt P11309); experiment: PIM1 serine/threonine kinase inhibitory effect; format: biochemical; details: PIM1 serine/threonine kinase activity; ATP 40 μM; 30° C., 30 minutes
T1 construct: purchased Carna Bioscience, Inc
How it was run: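 Compounds were tested in duplicate from 0.01 to 10000 nM final against PIM1 kinase (0.15 μg/ml). The reaction ran for 30 minutes at 30° C with 40 μM ATP and 0.5 μM biotin-tagged substrate at pH 7.0. Phosphorylation was read by time-resolved FRET (OD665/OD620) after 1 h; IC50 by non-linear fit.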

[2] = target: PIM1 transgenic cells (Ba/F3) (Homo sapiens, UniProt P11309); experiment: Proliferation inhibitory effect on PIM1 transgenic cells; format: cell-based, mouse; details: proliferation inhibition, 72 hours, Cell Counting Kit-8, read-out: PIM1 IC50
Description: Human PIM1, 2, and 3 genes were inserted into the multi-cloning sites of retrovirus expression vectors pMYs-IRES-GFP, respectively, to prepare gene transfer vectors. Then, each gene transfer vector was introduced into packaging cells PLAT-E derived from a human fetal kidney cell line in the logarithmic growth phase, using a transfection reagent (FuGENE6, Promega Corporation). Since the culture supernatant of PLAT-E after gene transfer contained virus particles for gene transfer, the culture supernatant was collected and used as a medium for gene transfer. The medium for gene transfer was added to a plate coated with RetroNectin, and the plate was incubated to attach the virus particles to the plate. Then, a mouse pro-B cell line Ba/F3 in the logarithmic growth phase was seeded on the plate and infected with the virus to prepare PIM1, 2, or 3 transgenic cells that proliferate in a PIM 1, 2, or 3-dependent manner. The expression of PIM1, 2, or 3 protein in each cell was confirmed by Western blotting.
Each test substance was prepared to 10 mM with dimethylsulfoxide (DMSO), and diluted with DMSO so as to have concentrations of 3000, 1000, 300, 100, 30, 10, 3, and 1 μM. Moreover, each dilution was further diluted 10-fold with distilled water to prepare a test substance solution.
PIM1, 2, 3-expressing cells were seeded on a 96-well plate, and each test substance solution prepared the next day was added such that final concentrations were 10000, 3000, 1000, 300, 100, 30, 10, 3, and 1 nM. 72 hours after the addition, 10 μL of Cell Counting Kit-8 (DOJINDO LABORATORIES) was added to each well. After incubation for 1 to 4 hours, absorbance OD450 at 450 nm was measured. In addition, absorption OD650 at 650 nm as a reference wavelength was measured.
OD450-OD650 for each condition was calculated, and then the inhibition rates when OD450-OD650 of negative control (DMSO only) and OD450-OD650 of Blank (without cells) were set to 0% and 100%, respectively, were calculated. Then, non-linear regression analysis was performed for logarithmic dose and inhibition rate using a two-parameter logistic model to estimate IC50 values.

T1 sequence (P11309 whole entry): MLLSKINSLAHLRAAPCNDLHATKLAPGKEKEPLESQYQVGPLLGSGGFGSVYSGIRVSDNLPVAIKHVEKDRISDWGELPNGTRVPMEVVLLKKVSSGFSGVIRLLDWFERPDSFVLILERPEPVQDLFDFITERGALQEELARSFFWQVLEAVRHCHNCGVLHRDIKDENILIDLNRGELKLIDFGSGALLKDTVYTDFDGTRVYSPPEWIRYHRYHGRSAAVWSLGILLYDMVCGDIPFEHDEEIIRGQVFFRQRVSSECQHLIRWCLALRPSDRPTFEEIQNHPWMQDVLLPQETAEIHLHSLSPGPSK
Chain of PIM1 transgenic cells (Ba/F3) (P11309 whole entry, stated change not applied): as the sequence (P11309 whole entry) above

SMILES | IC50 [1] | GI50 [2]
C[C@H](Nc1cc(-c2n[nH]c(=O)o2)cc(F)c1OC(F)(F)F)C1(C)CCNCC1 [Example 207, 5-[3-fluoro-5-{[(1S)-1-(4-methylpiperidin-4-yl)ethyl]amino}-4-(trifluoromethoxy)phenyl]-1,3,4-oxadiazol-2(3H)-one] | 2.6 nM | 50 nM
O=c1[nH]nc(-c2ccc(C(F)(F)F)c(NCCC3CCCNC3)c2)o1 (centres unmarked) [Example 60, 5-[3-{[2-(piperidin-3-yl)ethyl]amino}-4-(trifluoromethyl)phenyl]-1,3,4-oxadiazol-2(3H)-one hydrochloride] | 13 nM | 3100 nM
CCN[C@H]1CC[C@H]([C@H](C)Nc2cc(-c3n[nH]c(=O)o3)ccc2C(F)(F)F)CC1 [Example 193, 5-[3-({(1S)-1-[(1r,4S)-4-(ethylamino)cyclohexyl]ethyl}amino)-4-(trifluoromethyl)phenyl]-1,3,4-oxadiazol-2(3H)-one hydrochloride] | 6.1 nM | 160 nM
C[C@H](Nc1nc(-c2n[nH]c(=O)o2)ccc1C(F)(F)F)C1CCNCC1 [Example 114, 5-[6-{[(1S)-1-(piperidin-4-yl)ethyl]amino}-5-(trifluoromethyl)pyridin-2-yl]-1,3,4-oxadiazol-2(3H)-one hydrochloride hydrochloride] | 8.4 nM | 300 nM
C[C@@H]([C@H]1CC[C@H](N)CC1)N1CCOc2ccc(-c3n[nH]c(=O)o3)cc21 [Example 247, 5-(4-{(1S)-1-[(1r,4S)-4-aminocyclohexyl]ethyl}-3,4-dihydro-2H-1,4-benzoxazin-6-yl)-1,3,4-oxadiazol-2(3H)-one] | 2.8 nM | 120 nM
O=c1[nH]nc(-c2ccc(C(F)(F)F)c(NCC3C4CCC3CNC4)c2)o1 (centres unmarked) [Example 133, 5-[3-{[(3-azabicyclo[3.2.1]octan-8-yl)methyl]amino}-4-(trifluoromethyl)phenyl]-1,3,4-oxadiazol-2(3H)-one hydrochloride] | 8 nM | 200 nM
N[C@H]1CO[C@H](C2CC2c2cc(-c3n[nH]c(=O)o3)ccc2C(F)(F)F)OC1 (some centres unmarked) [Example 161, 5-[3-{2-[(2r,5r)-5-amino-1,3-dioxan-2-yl]cyclopropyl}-4-(trifluoromethyl)phenyl]-1,3,4-oxadiazol-2(3H)-one hydrochloride] | 29 nM | 1000 nM
C[C@H](Nc1cc(-c2n[nH]c(=O)o2)ccc1C(F)(F)F)[C@@H]1CCC[C@H](N)C1 [Example 191, 5-[3-({(1S)-1-[(1R,3S)-3-aminocyclohexyl]ethyl}amino)-4-(trifluoromethyl)phenyl]-1,3,4-oxadiazol-2(3H)-one hydrochloride] | 11 nM | 160 nM
CCOc1c(F)cc(-c2n[nH]c(=O)o2)cc1N[C@@H](C)[C@H]1CC[C@H](N)CC1 [Example 173, 5-[3-({(1S)-1-[(1r,4S)-4-aminocyclohexyl]ethyl}amino)-4-ethoxy-5-fluorophenyl]-1,3,4-oxadiazol-2(3H)-one dihydrochloride] | 10 nM | 250 nM
C[C@H](Nc1cc(-c2n[nH]c(=O)o2)cc(F)c1C(F)(F)F)[C@@H]1C[C@H](N)C1(C)C [Example 150, 5-[3-({(1S)-1-[(1R,3S)-3-amino-2,2-dimethylcyclobutyl]ethyl}amino)-5-fluoro-4-(trifluoromethyl)phenyl]-1,3,4-oxadiazol-2(3H)-one hydrochloride] | 2 nM | 9.2 nM
C[C@H](Nc1cc(-c2n[nH]c(=O)o2)ccc1C(F)(F)F)[C@H]1C[C@@H](N)C1(C)C [Example 153, 5-[3-({(1S)-1-[(1S,3R)-3-amino-2,2-dimethylcyclobutyl]ethyl}amino)-4-(trifluoromethyl)phenyl]-1,3,4-oxadiazol-2(3H)-one hydrochloride] | 3.1 nM | 40 nM
C[C@@H]1CNCC[C@@H]1[C@H](C)Nc1cc(-c2n[nH]c(=O)o2)ccc1OC(F)(F)F [Example 218, 5-[3-({(1S)-1-[(3S,4S)-3-methylpiperidin-4-yl]ethyl}amino)-4-(trifluoromethoxy)phenyl]-1,3,4-oxadiazol-2(3H)-one] | 2.9 nM | 27 nM
C[C@@H]1CNCC[C@@H]1[C@H](C)Nc1cc(-c2n[nH]c(=O)o2)cc(F)c1Cl [Example 222, 5-[4-chloro-3-fluoro-5-({(1S)-1-[(3S,4S)-3-methylpiperidin-4-yl]ethyl}amino)phenyl]-1,3,4-oxadiazol-2(3H)-one] | 2.4 nM | 19 nM
O=c1[nH]nc(-c2ccc(Br)c(OCC3CCNCC3)c2)o1 [Example 235, 5-{4-bromo-3-[(piperidin-4-yl)methoxy]phenyl}-1,3,4-oxadiazol-2(3H)-one] | 7.7 nM | 650 nM
NCCc1ccc(-c2cc(-c3n[nH]c(=O)o3)ccc2C(F)(F)F)cc1 [Example 22, 5-[4′-(2-aminoethyl)-6-(trifluoromethyl)[1,1′-biphenyl]-3-yl]-1,3,4-oxadiazol-2(3H)-one hydrochloride] | 27 nM | 2200 nM
CN[C@H]1CC[C@H](CN(C)c2cc(-c3n[nH]c(=O)o3)ccc2C(F)(F)F)CC1 [Example 132, 5-[3-(methyl{[(1r,4r)-4-(methylamino)cyclohexyl]methyl}amino)-4-(trifluoromethyl)phenyl]-1,3,4-oxadiazol-2(3H)-one hydrochloride] | 17 nM | 440 nM
C[C@H](Nc1cc(-c2n[nH]c(=O)o2)ccc1Cl)[C@H]1CC[C@H](N)CC1 [Example 148, 5-[3-({(1S)-1-[(1r,4S)-4-aminocyclohexyl]ethyl}amino)-4-chlorophenyl]-1,3,4-oxadiazol-2(3H)-one hydrochloride] | 3.7 nM | 45 nM
C[C@@H]1CN([C@@H](C)[C@H]2CC[C@H](N)CC2)c2cc(-c3n[nH]c(=O)o3)cc(F)c2O1 [Example 253, 5-[(2R)-4-{(1S)-1-[(1r,4S)-4-aminocyclohexyl]ethyl}-8-fluoro-2-methyl-3,4-dihydro-2H-1,4-benzoxazin-6-yl]-1,3,4-oxadiazol-2(3H)-one hydrochloride] | 3 nM | 81 nM
C[C@H](Nc1cc(-c2n[nH]c(=O)o2)ccc1C(F)(F)F)C12C3C4C1C1C2C3C41N (stereo partly drawn) [Example 186, 5-[3-({(1S)-1-[(2S,3R)-4-aminocuban-1-yl]ethyl}amino)-4-(trifluoromethyl)phenyl]-1,3,4-oxadiazol-2(3H)-one hydrochloride] | 11 nM | 2300 nM
O=c1[nH]nc(-c2cc(F)c(Cl)c(NCC3(F)CCNCC3)c2)o1 [Example 123, 5-(4-chloro-3-fluoro-5-{[(4-fluoropiperidin-4-yl)methyl]amino}phenyl)-1,3,4-oxadiazol-2(3H)-one hydrochloride] | 8.2 nM | 340 nM
N[C@H]1CC[C@H](COc2cc(-c3n[nH]c(=O)o3)ccc2C(F)(F)F)CC1 [Example 240, 5-[3-{[(1r,4r)-4-aminocyclohexyl]methoxy}-4-(trifluoromethyl)phenyl]-1,3,4-oxadiazol-2(3H)-one] | 1.9 nM | 87 nM
NC1CC2(C1)CC(Nc1cc(-c3n[nH]c(=O)o3)ccc1C(F)(F)F)C2 (centres unmarked) [Example 43, 5-{3-[(6-aminospiro[3.3]heptan-2-yl)amino]-4-(trifluoromethyl)phenyl}-1,3,4-oxadiazol-2(3H)-one hydrochloride] | 9.2 nM | 190 nM
CC(Oc1cc(-c2n[nH]c(=O)o2)ccc1Br)[C@H]1CC[C@H](N)CC1 (some centres unmarked) [Example 237, 5-(3-{1-[(1r,4r)-4-aminocyclohexyl]ethoxy}-4-bromophenyl)-1,3,4-oxadiazol-2(3H)-one] | 5.3 nM | 90 nM
C[C@@H]([C@H]1CC[C@H](N)CC1)N1CCOc2c(F)cc(-c3n[nH]c(=O)o3)cc21 [Example 249, 5-(4-{(1S)-1-[(1r,4S)-4-aminocyclohexyl]ethyl}-8-fluoro-3,4-dihydro-2H-1,4-benzoxazin-6-yl)-1,3,4-oxadiazol-2(3H)-one] | 4.2 nM | 110 nM
C[C@@H](Nc1cc(-c2n[nH]c(=O)o2)ccc1C(F)(F)F)[C@H]1CC[C@H](N)CC1 [Example 111, 5-[3-({(1R)-1-[(1r,4R)-4-aminocyclohexyl]ethyl}amino)-4-(trifluoromethyl)phenyl]-1,3,4-oxadiazol-2(3H)-one hydrochloride] | 6.4 nM | 140 nM
